According to US20180235993A1 (priority 2000, published 2018):
Like-named read-outs stand apart in the source and are kept apart here.

How the values were obtained:
HepG2 cells [1] = assay: Mitochondria toxicity assay (L-lactic acid assay); assay type: cell-based; details: Conc. 10 μM, 4 day drug exposure
Description: HepG2 cells were cultured in 12-well plates as described above and exposed to various concentrations of drugs as taught by Pan-Zhou X-R, Cui L, Zhou X-J, Sommadossi J-P, Darley-Usmer V M. “Differential effects of antiretroviral nucleoside analogs on mitochondrial function in HepG2 cells” Antimicrob Agents Chemother 2000; 44:496-503. Lactic acid levels in the culture medium after 4 day drug exposure was measured using a Boehringer lactic acid assay kit. Lactic acid levels were normalized by cell number as measured by hemocytometer count.

MDBK = assay: Cytotoxicity assay (sulforhodamine B, CC50), MDBK; assay type: cell-based; details: MDBK cells, 4 days incubation
Description: (§1) Cells were seeded at a rate of between 5×10^3 and 5×10^4/well into 96-well plates in growth medium overnight at 37° C. in a humidified CO2 (5%) atmosphere. New growth medium containing serial dilutions of the drugs was then added. After incubation for 4 days, cultures were fixed in 50% TCA and stained with sulforhodamineB. The optical density was read at 550 nm. The cytotoxic concentration was expressed as the concentration required to reduce the cell number by 50% (CC50).

Human Hepatoma = assay: Cytotoxicity assay (sulforhodamine B, CC50), Human Hepatoma; assay type: cell-based; details: 4 days incubation
Description: as §1

HepG2 cells [2] = assay: Phosphorylation assay of nucleoside to active triphosphate; assay type: in vitro ADME; details: 10 μM [3H] labeled compound
Description: To determine the cellular metabolism of the compounds, HepG2 cells were obtained from the American Type Culture Collection (Rockville, Md.), and were grown in 225 cm^2 tissue culture flasks in minimal essential medium supplemented with non-essential amino acids, 1% penicillin-streptomycin. The medium was renewed every three days, and the cells were subcultured once a week. After detachment of the adherent monolayer with a 10 minute exposure to 30 mL of trypsin-EDTA and three consecutive washes with medium, confluent HepG2 cells were seeded at a density of 2.5×10^6 cells per well in a 6-well plate and exposed to 10 μM of [^3H] labeled active compound (500 dpm/pmol) for the specified time periods. The cells were maintained at 37° C. under a 5% CO2 atmosphere. At the selected time points, the cells were washed three times with ice-cold phosphate-buffered saline (PBS). Intracellular active compound and its respective metabolites were extracted by incubating the cell pellet overnight at −20° C. with 60% methanol followed by extraction with an additional 20 μL of cold methanol for one hour in an ice bath. The extracts were then combined, dried under gentle filtered air flow and stored at −20° C. until HPLC analysis.

BVDV (strain NADL) = assay: Cell Protection Assay (CPA); assay type: cell-based, Bovine Viral Diarrhea virus
Description: The assay was performed essentially as described by Baginski, S. G.; Pevear, D. C.; Seipel, M.; Sun, S. C. C.; Benetatos, C. A.; Chunduru, S. K.; Rice, C. M. and M. S. Collett “Mechanism of action of a pestivirus antiviral compound” PNAS USA 2000, 97(14), 7981-7986. MDBK cells (ATCC) were seeded onto 96-well culture plates (4,000 cells per well) 24 hours before use. After infection with BVDV (strain NADL, ATCC) at a multiplicity of infection (MOI) of 0.02 plaque forming units (PFU) per cell, serial dilutions of test compounds were added to both infected and uninfected cells in a final concentration of 0.5% DMSO in growth medium. Each dilution was tested in quadruplicate. Cell densities and virus inocula were adjusted to ensure continuous cell growth throughout the experiment and to achieve more than 90% virus-induced cell destruction in the untreated controls after four days post-infection. After four days, plates were fixed with 50% TCA and stained with sulforhodamine B. The optical density of the wells was read in a microplate reader at 550 nm. The 50% effective concentration (EC50) values were defined as the compound concentration that achieved 50% reduction of cytopathic effect of the virus. FIGS. 4 and 5 provide a graphical illustration of the methodology used to arrive at the 50% effective concentration (EC50) values for β-D-2′-CH3-riboG and ribavirin. FIG. 6 compares the results of the CPA for β-D-2′-CH3-riboG, β-D-2′-CH3-riboC, riboU, β-D-2′-CH3-riboA and ribavirin

[3] = tested on: Bovine Viral Diarrhea virus (BVDV); assay: microbe, parasite or virus in culture; assay type: cell-based; details: read-out: BVDV EC50
YFV-17D = assay: microbe, parasite or virus in culture; assay type: cell-based, Yellow fever virus vaccine strain 17D; details: Table 12; reduce the plaque number by 50%; YFV-BHK; read-out: YFV EC50
[4] = tested on: Human bone marrow cells (CFU-GM); assay: Human bone marrow toxicity, CFU-GM clonogenic assay; assay type: cell-based; details: human bone marrow colony formation, 14 to 18 days; read-out: IC50 CFU-GM
Description: (§2) Human bone marrow cells were collected from normal healthy volunteers and the mononuclear population was separated by Ficoll-Hypaque gradient centrifugation as described previously by Sommadossi J-P, Carlisle R. “Toxicity of 3′-azido-3′-deoxythymidine and 9-(1,3-dihydroxy-2-propoxymethyl)guanine for normal human hematopoietic progenitor cells in vitro” Antimicrobial Agents and Chemotherapy 1987; 31:452-454; and Sommadossi J-P, Schinazi R F, Chu C K, Xie M-Y. “Comparison of cytotoxicity of the (−)- and (+)-enantiomer of 2′,3′-dideoxy-3′-thiacytidine in normal human bone marrow progenitor cells” Biochemical Pharmacology 1992; 44:1921-1925. The culture assays for CFU-GM and BFU-E were performed using a bilayer soft agar or methylcellulose method. Drugs were diluted in tissue culture medium and filtered. After 14 to 18 days at 37° C. in a humidified atmosphere of 5% CO2 in air, colonies of greater than 50 cells were counted using an inverted microscope. The results in Table 4 are presented as the percent inhibition of colony formation in the presence of drug compared to solvent control cultures.

BVDV (NADL strain) = assay: Yield Reduction Assay; assay type: cell-based, Bovine Viral Diarrhea virus
Description: The assay was performed as described by Baginski, S. G.; Pevear, D. C.; Seipel, M.; Sun, S. C. C.; Benetatos, C. A.; Chunduru, S. K.; Rice, C. M. and M. S. Collett “Mechanism of action of a pestivirus antiviral compound” PNAS USA 2000, 97(14), 7981-7986, with minor modifications. Briefly, MDBK cells were seeded onto 24-well plates (2×10^5 cells per well) 24 hours before infection with BVDV (NADL strain) at a multiplicity of infection (MOI) of 0.1 PFU per cell. Serial dilutions of test compounds were added to cells in a final concentration of 0.5% DMSO in growth medium. Each dilution was tested in triplicate. After three days, cell cultures (cell monolayers and supernatants) were lysed by three freeze-thaw cycles, and virus yield was quantified by plaque assay. Briefly, MDBK cells were seeded onto 6-well plates (5×10^5 cells per well) 24 h before use. Cells were inoculated with 0.2 mL of test lysates for 1 hour, washed and overlaid with 0.5% agarose in growth medium. After 3 days, cell monolayers were fixed with 3.5% formaldehyde and stained with 1% crystal violet (w/v in 50% ethanol) to visualize plaques. FIG. 9 is a graphical illustration of the results from the Yield Reduction Assay. FIG. 8 is an image of BVDV yield reduction in the presence of increasing concentrations of β-D-2′-CH3-riboC.

BVDV = assay: Plaque Reduction Assay; assay type: cell-based, Bovine Viral Diarrhea virus
Description: For each compound the effective concentration was determined in duplicate 24-well plates by plaque reduction assays. Cell monolayers were infected with 100 PFU/well of virus. Then, serial dilutions of test compounds in MEM supplemented with 2% inactivated serum and 0.75% of methyl cellulose were added to the monolayers. Cultures were further incubated at 37° C. for 3 days, then fixed with 50% ethanol and 0.8% Crystal Violet, washed and air-dried. FIG. 7 is a graphical illustration of the results from the Plaque Reduction Assay. FIG. 8 is an image of BVDV plaque formation in the presence of increasing concentrations of β-D-2′-CH3-riboU.

[5] = tested on: Human bone marrow cells (BFU-E); assay: Human bone marrow toxicity, BFU-E clonogenic assay; assay type: cell-based; details: human bone marrow colony formation, 14 to 18 days
Description: as §2

[6] = HepG2 cells, read-out: CC50 HepG2
[7] = Huh7 cells, read-out: CC50 Huh7
[8] = read-out: Cell Protection (EC50)

`O=c1[nH]c(=O)n([C@@H]2O[C@H](CO)[C@@H](O)[C@@H]2F)cc1I` [FIAU, reference compound] was tested, and the lactate (HepG2 cells [1]) was 3.73 mg/10^6 cell and the “lactate % of Control” value (HepG2 cells [1]) was 170.4%.

With `CC1(O)[C@@H](O)[C@@H](CO)O[C@H]1n1cnc2c(N)ncnc21` (stereo partly drawn) [β-D-2'-CH3-riboA] the CC50 (MDBK) was 20 µM, the CC50 (Human Hepatoma; [6]) was 50 to 60 µM and the CC50 (Human Hepatoma; [7]) was 40 µM.

In the case of `C[C@@]1(O)[C@H](O)[C@@H](CO)O[C@H]1n1ccc(N)nc1=O` [β-D-2'-CH3-riboC], the CC50 (MDBK) is reported as 100 µM, the CC50 (Human Hepatoma; [6]) is reported as 150 µM and the CC50 (Human Hepatoma; [7]) is reported as > 250 µM.

In the case of `CC1(O)[C@@H](O)[C@@H](CO)O[C@H]1n1cnc2c(=O)[nH]c(N)nc21` (stereo partly drawn) [β-D-2'-CH3-riboG], the CC50 (MDBK) is reported as 100 µM, the CC50 (Human Hepatoma; [6]) is reported as > 250 µM and the CC50 (Human Hepatoma; [7]) is reported as > 250 µM.

With `C[C@@]1(O)[C@H](O)[C@@H](CO)O[C@H]1n1ccc(=O)[nH]c1=O` [β-D-2'-CH3-riboU] the CC50 (MDBK) was > 250 µM, the CC50 (Human Hepatoma; [6]) was > 250 µM and the CC50 (Human Hepatoma; [7]) was > 250 µM.

`C[C@@]1(O)[C@H](O)[C@@H](COP(=O)(O)OP(=O)(O)OP(=O)(O)O)O[C@H]1n1cnc2c(N)ncnc21` [β-D-2′-CH3-riboA-TP] showed an intracellular triphosphate level (HepG2 cells [2]; 2 h) of 33.1 pmol/million cells, an intracellular triphosphate level (HepG2 cells [2]; 4 h) of 67.7 pmol/million cells and an intracellular triphosphate level (HepG2 cells [2]; 8 h) of 147 pmol/million cells. The intracellular triphosphate level (HepG2 cells [2]; 24 h) was 427 pmol/million cells, the intracellular triphosphate level (HepG2 cells [2]; 30 h) was 456 pmol/million cells and the intracellular triphosphate level (HepG2 cells [2]; 48 h) was 288 pmol/million cells.

`C[C@@]1(O)[C@H](O)[C@@H](COP(=O)(O)OP(=O)(O)OP(=O)(O)O)O[C@H]1n1ccc(N)nc1=O` [β-D-2′-CH3-riboC-TP] was tested, and the intracellular triphosphate level (HepG2 cells [2]; 2 h) was 2.24 pmol/million cells, the intracellular triphosphate level (HepG2 cells [2]; 4 h) was 3.99 pmol/million cells and the intracellular triphosphate level (HepG2 cells [2]; 8 h) was 9.76 pmol/million cells. The intracellular triphosphate level (HepG2 cells [2]; 24 h) was 34.9 pmol/million cells, the intracellular triphosphate level (HepG2 cells [2]; 30 h) was 36.2 pmol/million cells and the intracellular triphosphate level (HepG2 cells [2]; 48 h) was 56.4 pmol/million cells.

Compound `C[C@@]1(O)[C@H](O)[C@@H](COP(=O)(O)OP(=O)(O)OP(=O)(O)O)O[C@H]1n1cnc2c(=O)[nH]c(N)nc21` [β-D-2′-CH3-riboG-TP] has an intracellular triphosphate level (HepG2 cells [2]; 8 h) of 2.85 pmol/million cells, an intracellular triphosphate level (HepG2 cells [2]; 24 h) of 0.91 pmol/million cells and an intracellular triphosphate level (HepG2 cells [2]; 30 h) of 3.22 pmol/million cells. The intracellular triphosphate level (HepG2 cells [2]; 48 h) was 6.26 pmol/million cells.

Work on `C[C@@]1(O)[C@H](O)[C@@H](CO)O[C@H]1n1cnc2c(=O)[nH]cnc21` [β-D-2′-CH3-riboI] yielded an EC50 (BVDV (strain NADL); [8]) of 45 µM.

In the case of `Cc1cn([C@@H]2O[C@H](CO)[C@@H](O)[C@@]2(C)O)c(=O)[nH]c1=O` [β-D-2′-CH3-riboT], the EC50 (BVDV (strain NADL); [8]) is reported as > 250 µM.

`C[C@@]1(O)[C@H](O)[C@@H](COP(=O)(O)OP(=O)(O)OP(=O)(O)O)O[C@H]1n1ccc(=O)[nH]c1=O` [β-D-2′-CH3-riboU-TP] showed an intracellular triphosphate level (HepG2 cells [2]; 2 h) of 0.40 pmol/million cells, an intracellular triphosphate level (HepG2 cells [2]; 4 h) of 1.21 pmol/million cells and an intracellular triphosphate level (HepG2 cells [2]; 8 h) of 1.57 pmol/million cells. For the same compound, the intracellular triphosphate level (HepG2 cells [2]; 24 h) was 6.39 pmol/million cells, the intracellular triphosphate level (HepG2 cells [2]; 30 h) was 7.18 pmol/million cells and the intracellular triphosphate level (HepG2 cells [2]; 48 h) was 9.42 pmol/million cells.

Work on `C[C@@]1(O)[C@H](O)[C@@H](CO)O[C@H]1n1ccc(=O)[nH]c1=O` [β-D-2′-CH3-riboU] yielded an EC50 (BVDV (strain NADL); [8]) of 20 µM, an EC50 (BVDV (strain NADL); read-out: EC50) of 20 µM and an EC50 [3] of 20 µM. For the same compound, the CC50 (MDBK cells) was > 250 µM, the EC50 (YFV-17D) was 33 µM and the IC50 [4] was > 100 µM. For the same compound, the “Conc. for 6-log Reduction” value (BVDV (NADL strain)) was 120 μM, the EC90 (BVDV (NADL strain)) was 24 µM and the “Yield Reduction 6 log10 reduction (μM)” value (BVDV (NADL strain)) was 120 μM. For the same compound, the EC90 (BVDV; read-out: EC90) was < 81 µM, the EC90 (BVDV; read-out: Plaque Reduction (EC90)) was < 81 µM and the IC50 [5] was > 100 µM. For the same compound, the CC50 (various cell systems) was > 100 µM and the CC50 (various cell systems; read-out: YFV CC50, Table 12, reduce the viability of cells by 50%, YFV-BHK system) was > 100 µM.
